Data reported in publication PMC11858715 (Molecules, 2025).
No end group written: not given here.

How the values were obtained:
[1] = target: S2 (YIYRNYPDF), sense peptide surrogate of AtxA neurotoxic site (Vipera ammodytes ammodytes, UniProt P00626); assay: biochemical; format: binding; details: 100% DMSO; 25 °C; read-out: KD (σ)
[2] = target: S1 (GMMILG), sense peptide surrogate of AtxA neurotoxic site (Vipera ammodytes ammodytes, UniProt P00626); assay: biochemical; format: binding; details: 100% DMSO; 25 °C; read-out: KD (σ)

Substance | Kd [1] | Kd [2]
INISIVGVK [S2A1, Ile-Asn-Ile-Ser-Ile-Val-Gly-Val-Lys] | 1.1 µM | –
SHHYEP [S1A1, Ser-His-His-Tyr-Glu-Pro] | – | 4.9 µM
VNISVIGIK [S2A2, Val-Asn-Ile-Ser-Val-Ile-Gly-Ile-Lys] | 8.9 µM | –
SHHYSP [S1A2, Ser-His-His-Tyr-Ser-Pro] | – | 1.4 µM
